These compounds were tested against T1, Kv3.1 (Homo sapiens, UniProt P48547) (assay: Kv3.1 automated patch clamp (Qube) cellular electrophysiology assay).
T1 construct: expressed in transfected cells
T1 sequence (P48547 1-511): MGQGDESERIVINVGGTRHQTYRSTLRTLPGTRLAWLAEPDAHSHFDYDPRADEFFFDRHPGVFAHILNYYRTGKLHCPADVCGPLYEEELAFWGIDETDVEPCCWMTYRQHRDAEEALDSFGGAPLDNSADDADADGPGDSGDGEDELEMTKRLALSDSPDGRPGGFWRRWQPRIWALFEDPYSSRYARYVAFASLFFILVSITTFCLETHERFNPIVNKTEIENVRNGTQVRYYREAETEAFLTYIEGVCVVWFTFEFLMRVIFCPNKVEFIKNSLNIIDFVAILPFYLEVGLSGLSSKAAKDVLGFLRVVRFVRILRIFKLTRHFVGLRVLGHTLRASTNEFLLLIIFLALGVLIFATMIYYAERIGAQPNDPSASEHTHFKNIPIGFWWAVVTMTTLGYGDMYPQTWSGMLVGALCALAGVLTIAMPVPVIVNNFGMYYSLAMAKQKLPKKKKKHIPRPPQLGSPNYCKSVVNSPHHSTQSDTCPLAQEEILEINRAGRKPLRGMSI
Format: cell-based
From the text: In vitro, high-throughput cellular electrophysiology was employed to detect voltage-dependence of compounds in single concentration screening and IC50 determination for library and medicinal chemistry profiling compounds in 384 well plates.
HEK-293 cell lines stably expressing coding DNA for Kv3.1, 3.2, 3.3, and 3.4 were validated on an automated patch clamp (APC) platform, Qube from Sophion/Denmark. Cell cultures were maintained in DMEM cell growth media containing FBS and appropriate antibiotics at 37° C., 5% CO2 for a maximum of 20 passages. Intra- and extracellular (w. glucose) HEPES buffers containing various monovalent and divalent cations were adjusted to pH 7.2 and 7.4 respectively. Cells were harvested at 75% confluency and resuspended in extracellular buffer and added to wells. Negative pressure was applied to establish whole cell recording by APC.
Currents through activated channels were measured directly by APC by employing depolarization voltage steps. Baseline currents were established for the voltage-dependence protocols using a −80 mV holding potential and multiple test pulses at +10 mV or by 10 mV steps from −80 mV to +40 mV, respectively. Test compounds were added after baseline recordings followed by a 10 min incubation, and voltage-dependency protocol recordings. Data was corrected for baseline and leak currents (well based) and normalized for % potentiation (plate based). Two previously reported Kv3 positive modulators of varying potencies were used for run to run and plate to plate quality controls. A non-selective and potent positive modulator was used as a positive control. Percent potentiation was analyzed at −20 mV of the voltage-dependency protocol and voltage shift in channel activation was analyzed using the voltage step protocol from −80 mV to +40 mV. Selectivity was assessed against Kv3.2, Kv3.3, and Kv3.4 overexpressing cell lines using similar methods.

Point of comparison: `COc1cc(Oc2ccc(-n3c(=O)[nH]c4ccccc43)cn2)ccc1C` [Example 34, 3-[6-(3-methoxy-4-methyl-phenoxy)-3-pyridyl]-1H-benzimidazol-2-one], EC50 5.2 µM. Against it:
- O=c1[nH]c2cccnc2n1-c1ccc(Oc2cccc3c2C2(CC2)CO3)nc1 [Example 1, 3-(6-spiro[2H-benzofuran-3,1′-cyclopropane]-4-yloxy-3-pyridyl)-1H-imidazo[4,5-b]pyridin-2-one] — 17-fold lower, 0.3 µM
- O=c1[nH]c2cncnc2n1-c1ccc(Oc2cccc3c2C2(CC2)CO3)nc1 [Example 2, 9-(6-spiro[2H-benzofuran-3,1′-cyclopropane]-4-yloxy-3-pyridyl)-7H-purin-8-one] — 6.5-fold lower, 0.8 µM
- CCc1cc(Oc2ccc(-n3c(=O)[nH]c4cccnc43)cn2)ccc1C#N [Example 49, 2-ethyl-4-[[5-(2-oxo-1H-imidazo[4,5-b]pyridin-3-yl)-2-pyridyl]oxy]benzonitrile] — within 1.5-fold, 4.1 µM
- COc1cc(Oc2ccc(-n3c(=O)[nH]c4cncnc43)cn2)ccc1C [Example 43, 9-[6-(3-methoxy-4-methyl-phenoxy)-3-pyridyl]-7H-purin-8-one] — within 1.5-fold, 7.4 µM
- COc1cc(Oc2ccc(-n3c(=O)[nH]c4cc(F)cnc43)cn2)ccc1C [Example 7, 6-fluoro-3-[6-(3-methoxy-4-methyl-phenoxy)-3-pyridyl]-1H-imidazo[4,5-b]pyridin-2-one] — 2.4-fold lower, 2.2 µM
- CC(C)(C)c1cc(C#N)ccc1Oc1ccc(-n2c(=O)[nH]c3cnccc32)cn1 [Example 26, 3-tert-butyl-4-[[5-(2-oxo-3H-imidazo[4,5-c]pyridin-1-yl)-2-pyridyl]oxy]benzonitrile] — within 1.5-fold, 4.7 µM
- COc1cc(Oc2ccc(-n3c(=O)[nH]c4ncccc43)cn2)ccc1C [Example 30, 1-[6-(3-methoxy-4-methyl-phenoxy)-3-pyridyl]-3H-imidazo[4,5-b]pyridin-2-one] — 3.7-fold higher, 19.2 µM
- COc1cc(Oc2ncc(-n3c(=O)[nH]c4cccnc43)cc2C)ccc1C [Example 46, 3-[6-(3-methoxy-4-methyl-phenoxy)-5-methyl-3-pyridyl]-1H-imidazo[4,5-b]pyridin-2-one] — within 1.5-fold, 4 µM
- Cc1ccc(Oc2ccc(-n3c(=O)[nH]c4cccnc43)cn2)c(F)c1 [Example 36, 3-[6-(2-fluoro-4-methyl-phenoxy)-3-pyridyl]-1H-imidazo[4,5-b]pyridin-2-one] — within 1.5-fold, 4.3 µM
- CC(C)c1cc(Oc2ccc(-n3c(=O)[nH]c4cccnc43)cc2F)ccc1C#N [Example 17, 4-[2-fluoro-4-(2-oxo-1H-imidazo[4,5-b]pyridin-3-yl)phenoxy]-2-isopropyl-benzonitrile] — within 1.5-fold, 4.7 µM
- Cc1cc(C#N)ccc1Oc1ccc(-n2c(=O)[nH]c3cccnc32)cn1 [Example 37, 3-methyl-4-[[5-(2-oxo-1H-imidazo[4,5-b]pyridin-3-yl)-2-pyridyl]oxy]benzonitrile] — within 1.5-fold, 6 µM
- CCc1cc(Oc2ccc(-n3c(=O)[nH]c4ccccc43)cn2)ccc1C#N [Example 21, 2-ethyl-4-[[5-(2-oxo-3H-benzimidazol-1-yl)-2-pyridyl]oxy]benzonitrile] — 3.6-fold higher, 18.5 µM
- O=c1[nH]c2ccncc2n1-c1ccc(Oc2cccc3c2C2(CC2)CO3)nc1 [Example 12, 3-(6-spiro[2H-benzofuran-3,1′-cyclopropane]-4-yloxy-3-pyridyl)-1H-imidazo[4,5-c]pyridin-2-one] — within 1.5-fold, 3.9 µM
- COc1cc(Oc2ncc(-n3c(=O)[nH]c4cnccc43)cc2C)ccc1C [Example 45, 1-[5-methyl-6-(3-methoxy-4-methyl-phenoxy)-3-pyridyl]-3H-imidazo[4,5-c]pyridin-2-one] — 1.7-fold lower, 3.1 µM
- COc1cc(Oc2ccc(-n3c(=O)[nH]c4cnccc43)cn2)ccc1C [Example 32, 1-[6-(3-methoxy-4-methyl-phenoxy)-3-pyridyl]-3H-imidazo[4,5-c]pyridin-2-one] — within 1.5-fold, 4.4 µM
- CC(C)c1cc(Oc2ccc(-n3c(=O)[nH]c4cccnc43)cn2)ccc1C#N [Example 5, 2-isopropyl-4-[[5-(2-oxo-1H-imidazo[4,5-b]pyridin-3-yl)-2-pyridyl]oxy]benzonitrile] — 1.9-fold lower, 2.7 µM
- COc1cc(Oc2ccc(-n3c(=O)[nH]c4nccnc43)cn2)ccc1C [Example 48, 3-[6-(3-methoxy-4-methyl-phenoxy)-3-pyridyl]-1H-imidazo[4,5-b]pyrazin-2-one] — within 1.5-fold, 3.9 µM
- COc1cc(Oc2ccc(-n3c(=O)[nH]c4cc(Cl)cnc43)cn2)ccc1C [Example 28, 6-chloro-3-[6-(3-methoxy-4-methyl-phenoxy)-3-pyridyl]-1H-imidazo[4,5-b]pyridin-2-one] — 1.9-fold higher, 10 µM
- CC(C)c1cc(C#N)ccc1O[C@H]1C[C@H](n2c(=O)[nH]c3cccnc32)C1 [Example 52, 3-isopropyl-4-[3-(2-oxo-1H-imidazo[4,5-b]pyridin-3-yl)cyclobutoxy]benzonitrile] — 3.3-fold higher, 17.4 µM
- CC(C)(C)c1cc(C#N)ccc1Oc1ccc(-n2c(=O)[nH]c3cccnc32)cn1 [Example 4, 3-tert-butyl-4-[[5-(2-oxo-1H-imidazo[4,5-b]pyridin-3-yl)-2-pyridyl]oxy]benzonitrile] — 2.6-fold lower, 2 µM
- N#Cc1ccc(Oc2ccc(-n3c(=O)[nH]c4cccnc43)cn2)c(C(F)(F)F)c1 [Example 40, 4-[[5-(2-oxo-1H-imidazo[4,5-b]pyridin-3-yl)-2-pyridyl]oxy]-3-(trifluoromethyl)benzonitrile] — within 1.5-fold, 6.6 µM
- CC(C)c1cc(Oc2ccc(-n3c(=O)[nH]c4cncnc43)cc2F)ccc1C#N [Example 18, 4-[2-fluoro-4-(8-oxo-7H-purin-9-yl)phenoxy]-2-isopropyl-benzonitrile] — 3.6-fold higher, 18.8 µM
- CC(C)c1cc(Oc2ccc(-n3c(=O)[nH]c4cncnc43)cn2)ccc1C#N [Example 15, 2-isopropyl-4-[[5-(8-oxo-7H-purin-9-yl)-2-pyridyl]oxy]benzonitrile] — within 1.5-fold, 3.5 µM
- Cc1cc(C#N)cc(C)c1Oc1ccc(-n2c(=O)[nH]c3cccnc32)cn1 [Example 38, 3,5-dimethyl-4-[[5-(2-oxo-1H-imidazo[4,5-b]pyridin-3-yl)-2-pyridyl]oxy]benzonitrile] — the same, 5.2 µM
- COc1cc(Oc2ncc(-n3c(=O)[nH]c4cnccc43)cc2F)ccc1C [Example 44, 1-[5-fluoro-6-(3-methoxy-4-methyl-phenoxy)-3-pyridyl]-3H-imidazo[4,5-c]pyridin-2-one] — 1.8-fold lower, 2.9 µM
- O=c1[nH]c2cccnc2n1-c1ccc(Oc2cccc3c2C2(CC2)CO3)c(F)c1 [Example 8, 3-(3-fluoro-4-spiro[2H-benzofuran-3,1′-cyclopropane]-4-yloxy-phenyl)-1H-imidazo[4,5-b]pyridin-2-one] — 2.3-fold lower, 2.3 µM
- COc1cc(Oc2ccc(-n3c(=O)[nH]c4cccnc43)cn2)ccc1C [Example 33, 3-[6-(3-methoxy-4-methyl-phenoxy)-3-pyridyl]-1H-imidazo[4,5-b]pyridin-2-one] — 1.5-fold lower, 3.4 µM
- COc1cc(Oc2ccc(-n3c(=O)[nH]c4cc(C(F)(F)F)cnc43)cn2)ccc1C [Example 29, 3-[6-(3-methoxy-4-methyl-phenoxy)-3-pyridyl]-6-(trifluoromethyl)-1H-imidazo[4,5-b]pyridin-2-one] — within 1.5-fold, 5.7 µM
- COc1cc(Oc2ccc(-n3c(=O)[nH]c4ccncc43)cn2)ccc1C [Example 31, 3-[6-(3-methoxy-4-methyl-phenoxy)-3-pyridyl]-1H-imidazo[4,5-c]pyridin-2-one] — 4-fold higher, 21 µM
